Assays:
Format in all cases: in vivo
Sida [1] = experiment: Example B4: post-emergence action, 250 g/ha; details: 250 g of AS/ha, sprayed in the 2-3-leaf stage, 0.2% X77, 3 weeks, nine-level scale 1=complete damage, 9=no effect
Method: (§1) Monocotyledonous and dicotyledonous test plants are sown in pots in standard soil. In the 2-3- leaf stage of the test plants, the test substances are sprayed on (500 l of spray liquor/ha) as an aqueous suspension, prepared from a wettable powder WP10 according to the desired dosage (250 g of a.i./ha). 0.2% of X77 is added as wetting agent to the spray liquor. The test plants are then grown under optimum conditions in a greenhouse.
(§2) After a test period of 3 weeks, the test is evaluated with a nine4evel scale of ratings (1=complete damage, 9=no effect). Ratings of 1 to 4 (in particular 1 to 3) mean good to very good herbicidal action, 7-9 mean good tolerance.

Kochia [2] = experiment: Example B4: post-emergence action, 250 g/ha; details: 250 g of AS/ha, sprayed in the 2-3-leaf stage, 0.2% X77, 3 weeks, nine-level scale 1=complete damage, 9=no effect
Method: as §1, §2

Stellaria [3] = experiment: Example B4: post-emergence action, 250 g/ha; details: 250 g of AS/ha, sprayed in the 2-3-leaf stage, 0.2% X77, 3 weeks, nine-level scale 1=complete damage, 9=no effect
Method: as §1, §2

Chenopodium [4] = experiment: Example B4: post-emergence action, 250 g/ha; details: 250 g of AS/ha, sprayed in the 2-3-leaf stage, 0.2% X77, 3 weeks, nine-level scale 1=complete damage, 9=no effect
Method: as §1, §2

Amaranthus [5] = experiment: Example B4: post-emergence action, 250 g/ha; details: 250 g of AS/ha, sprayed in the 2-3-leaf stage, 0.2% X77, 3 weeks, nine-level scale 1=complete damage, 9=no effect
Method: as §1, §2

Abutilon [6] = experiment: Example B4: post-emergence action, 250 g/ha; details: 250 g of AS/ha, sprayed in the 2-3-leaf stage, 0.2% X77, 3 weeks, nine-level scale 1=complete damage, 9=no effect
Method: as §1, §2

Sida [7] = experiment: Example B3: pre-emergence action, 250 g/ha; details: 250 g of AS/ha, sprayed immediately after sowing, 3 weeks, nine-level scale 1=complete damage, 9=no effect
Method: (§3) Monocotyledonous and dicotyledonous test plants are sown in pots in standard soil. Immediately after sowing, the test substances are sprayed on (500 l of spray liquorlha) as an aqueous suspension, prepared from a wettable powder WP10 corresponding to the desired dosage (250 g of a.i./ha).
as §2, with “The test plants are then grown under optimum conditions in a greenhouse. After” for “After”, “nine -evel” for “nine4evel”

Kochia [8] = experiment: Example B3: pre-emergence action, 250 g/ha; details: 250 g of AS/ha, sprayed immediately after sowing, 3 weeks, nine-level scale 1=complete damage, 9=no effect
Method: as §3
as §2, with “The test plants are then grown under optimum conditions in a greenhouse. After” for “After”, “nine -evel” for “nine4evel”

Stellaria [9] = experiment: Example B3: pre-emergence action, 250 g/ha; details: 250 g of AS/ha, sprayed immediately after sowing, 3 weeks, nine-level scale 1=complete damage, 9=no effect
Method: as §3
as §2, with “The test plants are then grown under optimum conditions in a greenhouse. After” for “After”, “nine -evel” for “nine4evel”

Chenopodium [10] = experiment: Example B3: pre-emergence action, 250 g/ha; details: 250 g of AS/ha, sprayed immediately after sowing, 3 weeks, nine-level scale 1=complete damage, 9=no effect
Method: as §3
as §2, with “The test plants are then grown under optimum conditions in a greenhouse. After” for “After”, “nine -evel” for “nine4evel”

Amaranthus [11] = experiment: Example B3: pre-emergence action, 250 g/ha; details: 250 g of AS/ha, sprayed immediately after sowing, 3 weeks, nine-level scale 1=complete damage, 9=no effect
Method: as §3
as §2, with “The test plants are then grown under optimum conditions in a greenhouse. After” for “After”, “nine -evel” for “nine4evel”

Abutilon [12] = experiment: Example B3: pre-emergence action, 250 g/ha; details: 250 g of AS/ha, sprayed immediately after sowing, 3 weeks, nine-level scale 1=complete damage, 9=no effect
Method: as §3
as §2, with “The test plants are then grown under optimum conditions in a greenhouse. After” for “After”, “nine -evel” for “nine4evel”

Compound | Post-emergence action: Sida (rating) (Sida [1]) | Post-emergence action: Kochia (rating) (Kochia [2]) | Post-emergence action: Stellaria (rating) (Stellaria [3]) | Post-emergence action: Chenopodium (rating) (Chenopodium [4]) | Post-emergence action: Amaranthus (rating) (Amaranthus [5]) | Post-emergence action: Abutilon (rating) (Abutilon [6]) | Pre-emergence action: Sida (rating) (Sida [7]) | Pre-emergence action: Kochia (rating) (Kochia [8]) | Pre-emergence action: Stellaria (rating) (Stellaria [9]) | Pre-emergence action: Chenopodium (rating) (Chenopodium [10]) | Pre-emergence action: Amaranthus (rating) (Amaranthus [11]) | Pre-emergence action: Abutilon (rating) (Abutilon [12])
CSc1ccc(C(=O)C2=C(O)C3CCC(C3)C2=O)c(C(F)(F)F)n1 (stereo not drawn) [Compound 1.335] | 2 | 2 | 3 | 2 | 2 | 3 | 2 | 5 | 7 | 1 | 2 | 1
CS(=O)(=O)c1ccc(C(=O)C2=C(O)C3CCC(C3)C2=O)c(C(F)(F)F)n1 (stereo not drawn) [Compound 1.339] | 4 | 1 | 3 | 3 | 2 | 2 | 2 | 7 | 1 | 1 | 1 | 2
CCSc1ccc(C(=O)C2=C(O)C3CCC(C3)C2=O)c(C(F)(F)F)n1 (stereo not drawn) [Compound 1.341] | 5 | 4 | 4 | 3 | 2 | 5 | 4 | 9 | 1 | 1 | 9 | 3
CC[S+]([O-])c1ccc(C(=O)C2=C(O)C3CCC(C3)C2=O)c(C(F)(F)F)n1 (stereo not drawn) [Compound 1.343] | 9 | 3 | 3 | 2 | 2 | 3 | 3 | 9 | 5 | 1 | 4 | 1
COc1ccc(C(=O)C2=C(O)C3CCC(C3)C2=O)c(C(F)(F)F)n1 (stereo not drawn) [Compound 1.347] | 3 | 2 | 3 | 2 | 2 | 3 | 4 | 1 | 1 | 1 | 2 | 2
O=C(C1=C(O)C2CCC(C2)C1=O)c1ccc(OCC(F)(F)F)nc1C(F)(F)F (stereo not drawn) [Compound 1.349] | 2 | 2 | 3 | 2 | 2 | 2 | 2 | 4 | 5 | 1 | 3 | 1
O=C(C1=C(O)C2CCC(C2)C1=O)c1ccc(Cl)nc1C(F)(F)F (stereo not drawn) [Compound 1.355] | 2 | 3 | 3 | 2 | 2 | 2 | 2 | 1 | 2 | 1 | 1 | 1

— US6498125B2, “Pyridine ketones useful as herbicides” (Syngenta Participations AG, priority 1998, dated 2002)
